Test results from the NIST ThermoML archive (doi:10.1016/j.fluid.2004.11.019).
± gives the expanded uncertainty stated by the source.

Assay: xn = mol fraction of the nth substance listed
Conditions: 348.15 K, Liquid

CCO [ethanol] + O
mass density [kg/m3]
Conditions | 30000 kPa | 40000 kPa
x1 = 0.003 | – | 990.1 ± 0.3
x1 = 0.0042 | – | 988.8 ± 0.3
x1 = 0.0082 | – | 987.6 ± 0.3
x1 = 0.0119 | – | 986 ± 0.3
x1 = 0.0158 | – | 983.5 ± 0.3
x1 = 0.0184 | – | 982.1 ± 0.3
x1 = 0.0219 | 976.7 ± 0.3 | 980.8 ± 0.3
x1 = 0.0255 | 975 ± 0.3 | 979 ± 0.3
x1 = 0.0279 | 973.3 ± 0.3 | 977.3 ± 0.3
x1 = 0.0315 | 972.3 ± 0.3 | 976.3 ± 0.3
x1 = 0.0366 | 969.5 ± 0.3 | 973.6 ± 0.3
x1 = 0.0392 | 968.1 ± 0.3 | 972.1 ± 0.3
x1 = 0.0439 | 966.3 ± 0.3 | 970.4 ± 0.3
x1 = 0.0483 | 964.1 ± 0.3 | 968.2 ± 0.3
x1 = 0.0516 | 963.2 ± 0.3 | 967.3 ± 0.3
x1 = 0.0559 | 961.7 ± 0.3 | 965.9 ± 0.3
x1 = 0.06 | 960 ± 0.3 | 964.1 ± 0.3
x1 = 0.0652 | 957.8 ± 0.3 | 961.9 ± 0.3
x1 = 0.0679 | 956.8 ± 0.3 | 960.9 ± 0.3
x1 = 0.0722 | 954.7 ± 0.3 | 958.9 ± 0.3
x1 = 0.0801 | 951.3 ± 0.3 | 955.6 ± 0.3
x1 = 0.084 | 950.7 ± 0.3 | 954.9 ± 0.3
x1 = 0.0879 | 948.8 ± 0.3 | 953 ± 0.3
x1 = 0.0926 | 947 ± 0.3 | 951.3 ± 0.3
x1 = 0.0958 | 945.7 ± 0.3 | 950 ± 0.4
x1 = 0.1006 | 943.9 ± 0.3 | 948.1 ± 0.4
x1 = 0.1111 | 939.8 ± 0.4 | 944.2 ± 0.4
x1 = 0.1225 | 935.6 ± 0.4 | 940 ± 0.4
x1 = 0.1296 | 932.9 ± 0.4 | 937.4 ± 0.4
x1 = 0.1402 | 929.1 ± 0.4 | 933.7 ± 0.4
x1 = 0.151 | 925.1 ± 0.4 | 929.7 ± 0.4
x1 = 0.1601 | 922 ± 0.4 | 926.6 ± 0.4
x1 = 0.1703 | 918.4 ± 0.4 | 923.1 ± 0.4
x1 = 0.18 | 915 ± 0.4 | 919.8 ± 0.4
x1 = 0.1903 | 911.6 ± 0.4 | 916.4 ± 0.4
x1 = 0.1996 | 908.5 ± 0.4 | 913.4 ± 0.5
x1 = 0.2269 | 899.7 ± 0.4 | 904.8 ± 0.5
x1 = 0.2502 | 892.8 ± 0.5 | 898.1 ± 0.5
x1 = 0.2745 | 885.8 ± 0.5 | 891.1 ± 0.5
x1 = 0.3009 | 878.6 ± 0.5 | 884.2 ± 0.5
x1 = 0.35 | 866.2 ± 0.5 | 872 ± 0.6
x1 = 0.4034 | 854 ± 0.6 | 860 ± 0.6
x1 = 0.4501 | 844.2 ± 0.6 | 850.5 ± 0.7
x1 = 0.498 | 835.1 ± 0.6 | 841.6 ± 0.7
x1 = 0.5501 | 825.9 ± 0.6 | 832.7 ± 0.7
x1 = 0.5998 | 818 ± 0.7 | 824.9 ± 0.8
x1 = 0.6489 | 810.6 ± 0.7 | 817.8 ± 0.8
x1 = 0.6967 | 804 ± 0.7 | 811.3 ± 0.8
x1 = 0.7475 | 797.6 ± 0.7 | 805.1 ± 0.8
x1 = 0.7996 | 791.3 ± 0.7 | 799 ± 0.9
x1 = 0.8484 | 785.8 ± 0.8 | 793.6 ± 0.9
x1 = 0.8993 | 780.3 ± 0.8 | 788.3 ± 0.9
x1 = 0.9503 | 775.2 ± 0.8 | 783.4 ± 0.9
x1 = 1 | 770.3 ± 0.8 | 778.6 ± 0.9
